Earlier results on one compound are cited in patent US7695734B2, “Extended release tablet formulation containing pramipexole or a pharmaceutically acceptable salt thereof” (Boehringer Ingelheim International GmbH, priority 2004, dated 2010).

For series [1] the following is noted: light.
A further series concerns the target dopamine D2 receptor (Homo sapiens, UniProt P14416).

Chain of dopamine D2 receptor (P14416 whole entry, species assumed): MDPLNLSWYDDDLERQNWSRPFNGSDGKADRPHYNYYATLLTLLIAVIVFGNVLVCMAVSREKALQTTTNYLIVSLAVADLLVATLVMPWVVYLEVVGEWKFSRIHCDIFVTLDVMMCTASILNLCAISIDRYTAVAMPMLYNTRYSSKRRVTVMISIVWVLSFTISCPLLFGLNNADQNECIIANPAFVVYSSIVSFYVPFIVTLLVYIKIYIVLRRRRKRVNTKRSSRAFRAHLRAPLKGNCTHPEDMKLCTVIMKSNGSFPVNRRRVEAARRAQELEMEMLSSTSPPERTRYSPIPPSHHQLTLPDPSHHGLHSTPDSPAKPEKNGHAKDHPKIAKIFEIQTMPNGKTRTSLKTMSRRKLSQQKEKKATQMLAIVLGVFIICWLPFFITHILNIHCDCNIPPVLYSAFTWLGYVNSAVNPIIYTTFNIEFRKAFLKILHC

Regarding `CCCN[C@H]1CCc2nc(N)sc2C1` [Pramipexole, (S)-2-amino-4,5,6,7-tetrahydro-6-(propylamino)benzothiazole], the stability in solution result in series [1] was “light sensitive”. The agonist activity result at dopamine D2 receptor (dopamine D2 receptor) is “full agonist”. On dopamine D2 receptor (dopamine receptors), the receptor selectivity entry was “receptor selectivity for the dopamine D2 family of dopamine receptors”.
